Data set [1] concerns human peripheral blood cells. As to the kind of experiment: Toxicity assays in human peripheral blood cells. The data set is classed as cell-based. As for the experimental part:
Fig 7 Toxicity assays in human peripheral blood cells. Peripheral blood was collected in EDTA-coated tubes from 5 healthy volunteers (age range: 25–30 years). Concentration was adjusted to 1.8×10^9 cells/L using RPMI-1640 medium containing 1% penicillin/streptomycin. Cells were cultured in triplicate in the presence or the absence of 30 or 60 μM CAM or compound 5, under a humidified 5% CO2 atmosphere for 5 days, at 37°C. Cultures were counted daily by a CELL-DYN 3700 Hematology Analyzer and values were expressed as a percentage of cells measured in controls.
Peripheral blood was collected in EDTA-coated tubes from 5 healthy volunteers (age range: 25–30 years). Cell concentration was adjusted to 5×10^8 cells/l using RPMI-1640 medium (GIBCO BRL) containing 1% penicillin/streptomycin. Cells were cultured in triplicate under a humidified 5% CO2 atmosphere for 5 days, at 37°C, in the absence (control cultures) or the presence of CAM or CAM dimers. Counting of cells was performed daily in a CELL-DYN 3700 Hematology Analyzer (Abbott, USA) and values were expressed as a percentage of cells measured in control cultures.

The test system of the next data set is HS-Sultan cells. In words: Toxicity assay in leukemic cell line (cell counting). The data set is classed as cell-based, Human. As to conditions: daily cell counting. How it is done:
(§1) Human leukemic cell lines, HS-Sultan (Burkitt’s lymphoma), Jurkat (T-cell acute lymphoblastic leukemia), and U937 (histiocytic lymphoma), were adjusted to 1×10^9 cells/l in RPMI-1640 medium supplemented with 10% fetal bovine serum and 1% penicillin/streptomycin. The cells were grown in triplicate in the absence (control cultures) or presence of CAM or CAM dimers for 4 days at 37°C, under a humidified 5% CO2 atmosphere. The medium was changed daily; CAM or CAM dimer addition was repeated after medium change. Aliquots were collected daily and counted in a CELL-DYN 3700 Hematology Analyzer. For cell necrosis and apoptosis assays, samples (10^6 cells) were collected and determined using the Annexin V-PE Apoptosis Detection Kit I (BD Pharmingen) for flow cytometry, according to the manufacturers’ instructions. Flow cytometry data were analyzed using the FlowJo flow cytometry analysis software. Necrotic and apoptotic cells were expressed as a percentage of total cells.
(§2) S4 Fig. Toxicity assays in Human leukemic cell lines. HS-Sultan, Jurkat, and U937 cell lines were adjusted to […] in RPMI-1640 medium containing 1% Penicillin/Streptomycin and 10% fetal bovine serum. […] Aliquots were collected daily and counted in a CELL-DYN 3700 Hematology Analyzer.

The subject of another data set is U937 cells. The description is as above. It counts as cell-based, Human. To be noted: daily cell counting. How it is done:
as §1, §2

The test system of data set [2] is 70S ribosomes from E. coli (23S rRNA). In words: Crosslinking of CAM dimers to ribosomes upon 365 nm irradiation. The data set is classed as binding. To be noted: R*I complex, 365 nm light for 30 min, compound at 10×K i. As for the experimental part: Specifically, a mixture of E. coli ribosomes together with either 4 or 5, each added to the incubation mixture at concentration equal to 10×K i, were irradiated for 30 min with 365 nm light. Following purification, the irradiation products were analyzed by primer extension. […] In contrast, compound 4 crosslinked to C2611, without raising any modification signal in the A2058-A2059 region. It should be mentioned that the concentrations used for compounds 4 and 5 in this series of experiments were much lower (<60 μM) than those of CAM utilized previously by Long & Porse. […]
Fig 5 CAM dimer crosslinking at the entrance to the exit tunnel, upon UV-irradiation. […] The irradiation products were analyzed by probing with DMS (panels A and B) or CMCT (panel C) and primer extension, before (lanes 3 and 6) or after discharging from excess CAM dimer (lanes 2 and 5). […]
Following formation of R*I complexes, the samples were irradiated at 365 nm, for 30 min, in a Vilber Lourmat UV Cabinet (VL-215.LC-30W) light source. […] Half of the sample was probed with DMS or CMCT, and then analyzed by primer extension as shown above, while the other half was extracted with phenol, phenol-chloroform (1:1), and chloroform, followed by ethanol precipitation to remove non-crosslinked agents. […]

For `O=C(N[C@H](CO)[C@H](O)c1ccc([N+](=O)[O-])cc1)c1ccc(C(=O)N[C@H](CO)[C@H](O)c2ccc([N+](=O)[O-])cc2)cc1` [Compound 5, N^1,N^4-Bis ((1R,2R)-1,3-dihydroxy-1-(4-nitrophenyl)propan-2-yl)-terephthalamide], the “toxicity against other types of leukocytes” value in data set [1] is “negligible”. The “time of peak toxicity on neutrophils” value in data set [1] (120 h exposure of blood cells) worked out at 48 h. For the same molecule, the toxicity on neutrophils result in data set [1] (120 h exposure of blood cells, 30 or 60 μM) was “mild and transient toxicity”. Besides, in the data set with HS-Sultan cells, the “sensitivity of HS-Sultan cells” value is “insensitive”. Further, the “sensitivity of U937 cells” value in the data set on U937 cells is on record as “insensitive”. The “nucleoside(s) of 23S rRNA crosslinked” value in data set [2] is “C2610, and less to nucleosides A2058 and A2059”.

The record behind these values is publication PMC4533973, “Synthesis and Evaluation of Chloramphenicol Homodimers: Molecular Target, Antimicrobial Activity, and Toxicity against Human Cells” (PLoS ONE, 2015).
